In patent publication US20230287138A1, “PROTEIN-DRUG CONJUGATES COMPRISING CAMPTOTHECIN ANALOGS AND METHODS OF USE THEREOF” (Regneron Pharmaceuticals, Inc., priority 2022, published 2023) one finds EC50 and maximum % kill data, which are given here for 15 compounds.

SMILES strings stand for the structures. Structures can show the parent of a compound that is named as a salt. Where two headings read alike, the source gives them in different places. Where only a bound is given, the exact number is not on record here.

One assay concerns SK-BR-3 cells. The assay is described as follows: In vitro cytotoxicity assay in SK-BR-3 cells (CellTiter-Glo 2.0). The class given is cell-based, human. The settings on record: for EC50: Homo sapiens. How it is done: To test the ability of anti-Her2 drug conjugates (ADCs) of the present disclosure (see Table 5) to kill human cell lines, an in vitro cytotoxicity assay was performed. In vitro cytotoxicity of the ADCs, isotype control ADCs, and reference free payloads were evaluated using the CellTiter-Glo 2.0 Assay Kit (Promega, Cat #G9243), in which the quantity of ATP present is used to determine the number of viable cells in culture.
The last well in each dilution series (untreated wells) served as blank controls containing only the media (ADCs) or media plus 0.2% DMSO (payloads) and was plotted as a continuation of the 3-fold serial dilution. Six days later, 100 μL of CellTiter Glo 2.0 was added to each well, plates were mixed for 2 minutes on an orbital shaker, and plates were incubated at room temperature for 10 minutes. Relative light units (RLUs) were measured on an Envision luminometer (PerkinElmer), and cell viability was expressed as a percentage of the untreated (100% viable) cells. IC50 values were determined using a four-parameter logistic equation over a 10-point dose response curve (GraphPad Prism). The maximum % kill was also determined for each test article as follows: 100−minimum percent viability.
(In general: In ATP-based viability assays light output follows the ATP content of the culture.)

A further assay relates to HCT-15. The assay is described as follows: HCT-15 data of payloads and linker-payloads (EC50, with or without verapamil). The class given is cell-based.
The mark [1] stands for this setting: Homo sapiens, linker-payload, HCT-15 cells, read-out: HCT-15 EC50.
[2] abbreviates: Homo sapiens, payload, HCT-15 cells, no verapamil, read-out: HCT-15 EC50.
[3] abbreviates: payload, HCT-15 cells plus verapamil, read-out: HCT-15 + verapamil EC50.

As a reminder, the EC50 is the concentration giving half of the maximal effect.

Consider `CC[C@@]1(O)C(=O)OCc2c1cc1n(c2=O)Cc2c-1nc1cc(F)c(C)c3c1c2[C@@H](N)CC3` [Exatecan], for which the EC50 in the assay with SK-BR-3 cells (144 h, Table 8, SK-BR-3, six days, concentrations corrected for DAR (effective payload concentration), read-out: SKBR3 EC50) amounted to 0.516 nM; in the assay with SK-BR-3 cells (SK-BR-3 cells, read-out: EC50 value) it was 0.516 nM. The maximum % kill in the assay with SK-BR-3 cells (SK-BR-3 cells, 100 − minimum percent viability) is recorded as about 95%.
For `CC[C@@]1(O)C(=O)OCc2c1cc1n(c2=O)Cc2c-1nc1cc(F)c(C)c3c1c2[C@@H](NC(=O)CNC(=O)OCc1ccc(NC(=O)[C@H](CCCNC(N)=O)NC(=O)[C@@H](NC(=O)CCOCCOCCOCCOCCNC(=O)COC2C#CCCCCC2)C(C)C)cc1)CC3` (stereo partly drawn) [LP5, {4-[(2S)-5-(Carbamoylamino)-2-[(2S)-2-{1-[2-(cyclooct-2-yn-1-yloxy)acetamido]-3,6,9,12-tetraoxapentadecan-15-amido}-3-methylbutanamido]pentanamido]phenyl}methyl N-({[(10S,23S)-10-ethyl-18-fluoro-10-hydroxy-19-methyl-5,9-dioxo-8-oxa-4,15-diazahexacyclo[14.7.1.0^2,^14.0^4,^13.0^6,^11.0^20,^24]tetracosa-1,6(11),12,14,16,18,20(24)-heptaen-23-yl]carbamoyl}methyl)carbamate], the EC50 in the assay with HCT-15 (setting [1]) is over 1000 nM.
Turning to `CCc1c2c(nc3ccc(OC)cc13)-c1cc3c(c(=O)n1C2)COC(=O)[C@]3(O)CC` [P17, (19S)-10,19-Diethyl-19-hydroxy-7-methoxy-17-oxa-3,13-diazapentacyclo[11.8.0.0^2,^11.0^4,^9.0^15,^20]henicosa-1(21),2,4,6,8,10,15(20)-heptaene-14,18-dione], the EC50 is 1.59 nM with HCT-15 (setting [2]) and 1.44 nM in the assay on HCT-15 (setting [3]).
With `CC[C@@]1(O)C(=O)OCc2c1cc1n(c2=O)Cc2c-1nc1cc(F)c(C)c3c1c2[C@@H](NC(=O)OCc1ccc(O[C@@H]2O[C@H](C(=O)O)[C@@H](O)[C@H](O)[C@H]2O)c(C(=O)NCCNC(=O)COC2C#CCCCCC2)c1)CC3` (stereo partly drawn) [LP3, (2S,3S,4S,5R,6S)-6-[2-({2-[2-(Cyclooct-2-yn-1-yloxy)acetamido]ethyl}carbamoyl)-4-[({[(10S,23S)-10-ethyl-18-fluoro-10-hydroxy-19-methyl-5,9-dioxo-8-oxa-4,15-diazahexacyclo[14.7.1.0^2,^14.0^4,^13.0^6,^11.0^20,^24]tetracosa-1,6(11),12,14,16,18,20(24)-heptaen-23-yl]carbamoyl}oxy)methyl]phenoxy]-3,4,5-trihydroxyoxane-2-carboxylic acid], the EC50 in the assay on HCT-15 (setting [1]) is 457 nM.
On the same count and under the same terms, the figure for `CC[C@@]1(O)C(=O)OCc2c1cc1n(c2=O)Cc2c-1nc1cc(F)c(C)c3c1c2[C@@H](NC(=O)COCNC(=O)OCc1ccc(NC(=O)[C@H](C)NC(=O)[C@@H](NC(=O)CCOCCOCCOCCOCCNC(=O)COC2C#CCCCCC2)C(C)C)cc1)CC3` (stereo partly drawn) [LP15, {4-[(2S)-2-[(2S)-2-{1-[2-(cyclooct-2-yn-1-yloxy)acetamido]-3,6,9,12-tetraoxapentadecan-15-amido}-3-methylbutanamido]propanamido]phenyl}methyl N-[({[(10S,23S)-10-ethyl-18-fluoro-10-hydroxy-19-methyl-5,9-dioxo-8-oxa-4,15-diazahexacyclo[14.7.1.0^2,^14.0^4,^13.0^6,^11.0^20,^24]tetracosa-1,6(11),12,14,16,18,20(24)-heptaen-23-yl]carbamoyl}methoxy)methyl]carbamate] is 96.9 nM.
With `C#CCNCc1c2c(nc3ccc(OC)cc13)-c1cc3c(c(=O)n1C2)COC(=O)[C@]3(O)CC` [P24, (S)-4-ethyl-4-hydroxy-9-methoxy-11-((prop-2-yn-1-ylamino)methyl)-1,12-dihydro-14H-pyrano[3′,4′:6,7]indolizino[1,2-b]quinoline-3,14(4H)-dione], in the assay with HCT-15 (setting [2]), the concentration for a half-maximal effect (EC50) came to 13.5 nM.
As to `CC[C@@]1(O)C(=O)OCc2c1cc1n(c2=O)Cc2c-1nc1ccc(OC)cc1c2CN` [P22, (19S)-10-(Aminomethyl)-19-ethyl-19-hydroxy-7-methoxy-17-oxa-3,13-diazapentacyclo[11.8.0.0^2,^11.0^4,^9.0^15,^20]henicosa-1(21),2,4,6,8,10,15(20)-heptaene-14,18-dione], the EC50 is 31.9 nM in the assay with HCT-15 (setting [2]) and 40.5 nM in the assay with HCT-15 (setting [3]).
Take `CC[C@@]1(O)C(=O)OCc2c1cc1n(c2=O)Cc2c-1nc1ccccc1c2CCN(C(C)C)S(C)(=O)=O` [P9, N-{2-[(19S)-19-ethyl-19-hydroxy-14,18-dioxo-17-oxa-3,13-diazapentacyclo[11.8.0.0^2,^11.0^4,^9.0^15,^20]henicosa-1(21),2,4,6,8,10,15(20)-heptaen-10-yl]ethyl}-N-(propan-2-yl)methanesulfonamide]: the values for the half-maximal effective concentration (EC50) with HCT-15 (setting [2]) and with HCT-15 (setting [3]) were 8.89 nM and 3.03 nM, respectively.
Consider `CC[C@@]1(O)C(=O)OCc2c1cc1n(c2=O)Cc2c-1nc1cc(F)c(C)c3c1c2[C@@H](NC(=O)OCc1ccc(O[C@@H]2O[C@H](CO)[C@@H](O)[C@H](O)[C@H]2O)c(C(=O)NCCNC(=O)COC2C#CCCCCC2)c1)CC3` (stereo partly drawn) [LP4, [3-({2-[2-(Cyclooct-2-yn-1-yloxy)acetamido]ethyl}carbamoyl)-4-{[(2S,3R,4S,5S,6R)-3,4,5-trihydroxy-6-(hydroxymethyl)oxan-2-yl]oxy}phenyl]methyl N-[(10S,23S)-10-ethyl-18-fluoro-10-hydroxy-19-methyl-5,9-dioxo-8-oxa-4,15-diazahexacyclo[14.7.1.0^2,^14.0^4,^13.0^6,^11.0^20,^24]tetracosa-1,6(11),12,14,16,18,20(24)-heptaen-23-yl]carbamate], for which the half-maximal effective concentration (EC50) in the assay with HCT-15 (setting [1]) was 363 nM.
`CC[C@@]1(O)C(=O)OCc2c1cc1n(c2=O)Cc2c-1nc1ccccc1c2CCN(CCO)C(C)C` [P10, (19S)-19-ethyl-19-hydroxy-10-{2-[(2-hydroxyethyl)(propan-2-yl)amino]ethyl}-17-oxa-3,13-diazapentacyclo[11.8.0.0^2,^11.0^4,^9.0^15,^20]henicosa-1(21),2,4,6,8,10,15(20)-heptaene-14,18-dione]: the figures for the EC50 in the assay on HCT-15 (setting [2]) and in the assay with HCT-15 (setting [3]) were 8.6 nM and 4.38 nM, respectively.
Take `CC[C@@]1(O)C(=O)OCc2c1cc1n(c2=O)Cc2c-1nc1cc(F)c(C)c3c1c2[C@@H](NC(=O)[C@@H](N)CCCCNC(=O)OCc1ccc(NC(=O)[C@H](CCCNC(N)=O)NC(=O)[C@@H](NC(=O)CCOCCOCCOCCOCCNC(=O)COC2C#CCCCCC2)C(C)C)cc1)CC3` (stereo partly drawn) [LP11, {4-[(2S)-5-(carbamoylamino)-2-[(2S)-2-{1-[2-(cyclooct-2-yn-1-yloxy)acetamido]-3,6,9,12-tetraoxapentadecan-15-amido}-3-methylbutanamido]pentanamido]phenyl}methyl N-[(5S)-5-amino-5-{[(10S,23S)-10-ethyl-18-fluoro-10-hydroxy-19-methyl-5,9-dioxo-8-oxa-4,15-diazahexacyclo[14.7.1.0^2,^14.0^4,^13.0^6,^11.0^20,^24]tetracosa-1,6(11),12,14,16,18,20(24)-heptaen-23-yl]carbamoyl}pentyl]carbamate]: in the assay with HCT-15 (setting [1]), the 50% effective concentration (EC50) is 208 nM.
On the same count and under the same terms, the figure for `CC[C@@]1(O)C(=O)OCc2c1cc1n(c2=O)Cc2c-1nc1cc(F)c(C)c3c1c2[C@@H](NC(=O)OCc1ccc(O[C@@H]2O[C@H](CO)[C@@H](O)[C@H](O)[C@H]2O)c(C(=O)NCCOCCOCCNC(=O)CCOCC(COCCC(=O)NCCOCCOCCNC(=O)c2cc(COC(=O)N[C@H]4CCc5c(C)c(F)cc6nc7c(c4c56)Cn4c-7cc5c(c4=O)COC(=O)[C@]5(O)CC)ccc2O[C@@H]2O[C@H](CO)[C@@H](O)[C@H](O)[C@H]2O)NC(=O)CCOCCOCCNC(=O)COC2C#CCCCCC2)c1)CC3` (stereo partly drawn) [LP16] is 140 nM.
As for `CC[C@@]1(O)C(=O)OCc2c1cc1n(c2=O)Cc2c-1nc1cc(F)c(C)c3c1c2[C@@H](N)CC3` [P1, Exatecan mesylate, reference compound], the figures for the concentration giving a half-maximal response (EC50) in the assay with HCT-15 (setting [2]) and with HCT-15 (setting [3]) were 1.22 nM and 1.13 nM, respectively.
With `CC[C@@]1(O)C(=O)OCc2c1cc1n(c2=O)Cc2c-1nc1ccc(OC)cc1c2CO` [P20, (19S)-19-Ethyl-19-hydroxy-10-(hydroxymethyl)-7-methoxy-17-oxa-3,13-diazapentacyclo[11.8.0.0^2,^11.0^4,^9.0^15,^20]henicosa-1(21),2,4,6,8,10,15(20)-heptaene-14,18-dione], the concentration for a half-maximal effect (EC50) was 3.69 nM with HCT-15 (setting [2]) and 2.4 nM in the assay with HCT-15 (setting [3]).
With `CC[C@@]1(O)C(=O)OCc2c1cc1n(c2=O)Cc2c-1nc1ccccc1c2CCNC(C)C` [P8, Belotecan HCl salt, reference compound], the 50% effective concentration (EC50) with HCT-15 (setting [3]) was found to be 3.09 nM; in the assay on HCT-15 (payload, HCT-15 cells, no verapamil, read-out: HCT-15 EC50), 20 nM.
